Test results: publication PMC10363480 (Plant Communications, 2023)

Test system: mitochondria or chloroplast of Chlamydomonas reinhardtii
Test: Subcellular localization of Venus reporter by epifluorescence microscopy (manual targeting assignment)
Format: cell-based
Details: for chloroplast targeting upon addition of cTP-C (P^c): C-terminal element of RCA1-cTP added to the named peptide, Figure 2 rows E and F; for chloroplast targeting upon addition of cTP-C (P^c) / targeting when combining cTP-N with mTP-C (^cP^m): bare name = K and R versions
Description: In a bid to keep peptidase recognition sites intact, C-terminal elements were designed to start 10 residues upstream of the cleavage site, even though this slightly truncates TP helices. Peptides carrying the 15-amino-acid cTP N-terminus (cTP-N) will be denoted ^cP. Similarly, peptides with C-terminal elements from RCA1-cTP (cTP-C) or CAG2-mTP (mTP-C) will be denoted P^c or P^m, respectively. Peptide variants are used to drive the subcellular localization of a Venus fluorescent reporter protein, which was assessed using fluorescence microscopy; in Figure 2, an executive overview of observed Venus localization is presented for all constructs. […] Here, we use automated image segmentation to validate our subcellular localization assessment (Supplemental Figure 2, Supplemental text). […] The reader will be asked to return to Figure 2 throughout, with Figures 3 and 4 providing selected micrographs as examples highlighting particular points of interest.
Chlamydomonas TP sequences were amplified from genomic DNA extracted from strain T222+ (CC-5101). Templates for codon-optimized HA-RAMP, RP, and R→K modified TP sequences were obtained by gene synthesis (Eurofins Genomics). Correct assembly was verified by sequencing (Eurofins Genomics). Linear transformation cassettes were generated through restriction digestion with EcoRV (New England Biolabs).
Constructs were transformed into wild-type strain T222+ (CC-5101) using a protocol described previously ([Onishi and Pringle, 2016]), except using 4 μl of DNA at 2 μg/μl.
Strains with suspected mitochondrial targeting were treated with 0.1 μM MitoTracker Red CMXRos (Thermo Fisher Scientific) in growth medium for 30 min in the dark and washed with TAP prior to taking images.
Legend for Fig. S3 – S20. Three independent transformant lines (Strains 1-3) are shown for each combination of modifications (A-L), represented by a cartoon and a shorthand description (cf. Fig.
2). Where a construct was interpreted as generating reporter localization in mitochondria or […]
Epifluorescence microscopy images of typical cells for each strain are shown. MitoTracker fluorescence, false-coloured in cyan, indicates the position of mitochondria (although parts of the cell exterior are sometimes also stained). False-coloured yellow fluorescence from the Venus channel reports on the subcellular localization of the fluorescent reporter. Chlorophyll autofluorescence, shown in magenta, indicates the location of the chloroplast. Scale bars are 5µm. Brightness (Br.) was adjusted for clarity: fluorescence intensity values were restricted to the range shown for each channel by matching coloured rectangles. Intensity scales to 0 at the bottom of the panel, and to 65535 at the top.
On the right-hand side, quantitative information associated with each construct is shown. Data was normalized such that averages range from 0 to 1 across all constructs (cf. Fig S2). Individual cell measurements may exceed this range; for clarity, the range shown here is limited to -0.5 to 1.5, with outliers that have more extreme values shown as lying beyond a dashed line. Strain 1 is plotted as circles, strain 2 as squares, and strain 3 as diamonds. Venus: Fluorescence plate reader data of transformants screened for this construct (Venus fluorescence, accounting for cell density using linear regression of OD750 and chlorophyll fluorescence trained on ‘no venus’ control transformants). Transformants that were not selected after screening are shown as small grey circles. A colour code ranging from white (low Venus fluorescence) to black (high Venus fluorescence) is used for strains 1-3 and the average thereof. Automated image quantification data: pyr/chl: Venus channel signal in the pyrenoid relative to in the chlorophyll region; mt/cell: Venus channel signal in mitochondria relative to the whole cell. Each point corresponds to a single cell.
The colour code code is the same as that below distributions in Fig. S2, i.e. blue highlights the […]

[1] = peptide-Venus reporter construct expressed in Chlamydomonas reinhardtii, manual targeting assignment (Neither / Mitochondria / Chloroplast / Dual; partial = partial targeting)
[2] = manual targeting assignment of the Venus reporter construct in Chlamydomonas: Neither / Mitochondria / Chloroplast / Dual, (partial) = partial targeting
[3] = targeting of the Venus reporter fused to the peptide, expressed in Chlamydomonas reinhardtii, manual assignment from epifluorescence microscopy, full or partial

Sequence | Localisation [1] | Localisation [2] | further results
MGIGKFLHSAKKFGKAFVGEIMNSLTQTAESFRGVSSQFFDAPNGPSVKQVLIEDEW [MII.K.m] | Mitochondria (partial) |  | 
MQVTMKSSAVSGQRVMKYYGNGVHCTKSGCSVNWGEAFSAGVHRLANGGNGFWSVRRAQLQVVASSRKQMGRWRSIDAGVDASDDQ [c.LCA.K.c] | Chloroplast (partial) |  | 
MGWIRDFGRRIERVGQHTRDATIQTIAVAQQAANVAATLRGLTQTAESFRGVSSQFFDAPNGPSVKQVLIEDEW [S1D.R.m] |  | Neither | 
MALWMTLLKKVLKAAAKAALNAVLVGANALTQTAESFRGVSSQFFDAPNGPSVKQVLIEDEW [DS4.K.m] | Neither |  | 
MRYYGNGVSCNRRGCSVDWGRAIGIIGNNAAANLTTGGRAGWRGLTQTAESFRGVSSQFFDAPNGPSVKQVLIEDEW [EHF.R.m] |  | Chloroplast | 
MQVTMKSSAVSGQRVRYYGNGVSCNRRGCSVDWGRAIGIIGNNAAANLTTGGRAGWRG [c.EHF.R] |  | Chloroplast (partial) | 
MKYYGNGVHCTRSGCSVNWGEAFSAGVHRLANGGNGFW [LCA.R] | Neither |  | 
MQVTMKSSAVSGQRVMLKKVGQSLVPFAKAGSVRRAQLQVVASSRKQMGRWRSIDAGVDASDDQ [c.MH.K.c] |  | Chloroplast | 
MQVTMKSSAVSGQRVRYYGNGVSCNRRGCSVDWGRAIGIIGNNAAANLTTGGRAGWRGLTQTAESFRGVSSQFFDAPNGPSVKQVLIEDEW [c.EHF.R.m] |  | Chloroplast | 
MQVTMKSSAVSGQRVALWMTLLRRVLRAAARAALNAVLVGANA [c.DS4.R] | Neither |  | 
MQVTMKSSAVSGQRVMKYYGNGVSCNKKGCSVDWGKAIGIIGNNAAANLTTGGKAGWKGLTQTAESFRGVSSQFFDAPNGPSVKQVLIEDEW [c.EHF.K.m] |  |  | Localisation [3]: Chloroplast
MVNYGNGVSCSRTRCSVNWGIITHQAFRVTSGVASGSVRRAQLQVVASSRKQMGRWRSIDAGVDASDDQ [B15.R.c] | Chloroplast |  | 
MGLLLDTLRGAARDIAGIALERLRCRITGCRPSVRRAQLQVVASSRKQMGRWRSIDAGVDASDDQ [R2G.R.c] |  | Neither | 
MGGARVATRSVRRAQLQVVASSRKQMGRWRSIDAGVDASDDQ [CH.R.c] |  | Chloroplast | 
MSVRRAQLQVVASSRKQMGRWRSIDAGVDASDDQ [-.c] |  | Neither | 
MQVTMKSSAVSGQRVMSFLTTFKDLAIKAAKSAGQSVLSTLSCKLSNTCLTQTAESFRGVSSQFFDAPNGPSVKQVLIEDEW [c.B2I.K.m] |  |  | Localisation [3]: Mitochondria
MQVTMKSSAVSGQRVMGLLLDTLKGAAKDIAGIALEKLKCKITGCKPSVRRAQLQVVASSRKQMGRWRSIDAGVDASDDQ [c.R2G.K.c] |  |  | Localisation [3]: Mitochondria (partial)
MNIVVYWNFTLWHMDINARNAGCDGEGSLTQTAESFRGVSSQFFDAPNGPSVKQVLIEDEW [RP1.K.m] |  |  | Localisation [3]: Neither
MRYYGNGVSCNRRGCSVDWGRAIGIIGNNAAANLTTGGRAGWRGSVRRAQLQVVASSRKQMGRWRSIDAGVDASDDQ [EHF.R.c] |  | Chloroplast | 
MQVTMKSSAVSGQRVGIGRFLHSARRFGRAFVGEIMNSSVRRAQLQVVASSRKQMGRWRSIDAGVDASDDQ [c.MII.R.c] |  |  | Localisation [3]: Chloroplast
MQVTMKSSAVSGQRVMKYYGNGVHCTRSGCSVNWGEAFSAGVHRLANGGNGFWSVRRAQLQVVASSRKQMGRWRSIDAGVDASDDQ [c.LCA.R.c] | Chloroplast |  | 
GWIRDFGKRIERVGQHTRDATIQTIAVAQQAANVAATLKG [S1D, sarcotoxin-1D, HA-RAMP antimicrobial peptide, reference compound] |  |  | mitochondrial targeting upon sole addition of cTP-N (^cP) (15 N-terminal residues of RCA1-cTP added, no C-terminal element, Figure 2): enabled mitochondrial targeting; chloroplast targeting upon addition of cTP-C (P^c): enabled chloroplast targeting; targeting when combining cTP-N with mTP-C (^cP^m) (Figure 2): dual targeting
MQVTMKSSAVSGQRVMGWIRDFGKRIERVGQHTRDATIQTIAVAQQAANVAATLKGSVRRAQLQVVASSRKQMGRWRSIDAGVDASDDQ [c.S1D.K.c] |  |  | Localisation [3]: Chloroplast

Sequence | Localisation [1] | Localisation [2] | further results
MGIGRFLHSARRFGRAFVGEIMNS [MII.R] | Mitochondria |  | 
MQVTMKSSAVSGQRVMGLFSRFNRRRIRSGLIRIIRTAGREAGLEALRTGIDVIGCRIRGEC [c.E1S.R] |  |  | Localisation [3]: Chloroplast
MGIGRFLHSARRFGRAFVGEIMNSSVRRAQLQVVASSRKQMGRWRSIDAGVDASDDQ [MII.R.c] | Mitochondria |  | 
MQVTMKSSAVSGQRVMWLSKTAKKLENSAKKRISEGIAIAIKGGSRSVRRAQLQVVASSRKQMGRWRSIDAGVDASDDQ [c.CP3.K.c] | Neither |  | 
MGLFSRFNRRRIRSGLIRIIRTAGREAGLEALRTGIDVIGCRIRGEC [E1S.R] | Neither |  | 
MQVTMKSSAVSGQRVMKYYGNGVHCTRSGCSVNWGEAFSAGVHRLANGGNGFWLTQTAESFRGVSSQFFDAPNGPSVKQVLIEDEW [c.LCA.R.m] | Neither |  | 
MQVTMKSSAVSGQRVMVNYGNGVSCSKTKCSVNWGIITHQAFRVTSGVASGLTQTAESFRGVSSQFFDAPNGPSVKQVLIEDEW [c.B15.K.m] | Chloroplast |  | 
MLKRVGQSLVPFARAG [MH.R] |  | Mitochondria (partial) | 
MQVTMKSSAVSGQRVMGLFSKFNKKKIKSGLIKIIKTAGKEAGLEALRTGIDVIGCKIKGEC [c.E1S.K] |  |  | Localisation [3]: Neither
MGIGKFLHSAKKFGKAFVGEIMNS [MII.K] | Mitochondria (partial) |  | 
MQVTMKSSAVSGQRVGGARVATRSVRRAQLQVVASSRKQMGRWRSIDAGVDASDDQ [c.CH.R.c] |  | Chloroplast | 
MSFLTTFKDLAIKAAKSAGQSVLSTLSCKLSNTCLTQTAESFRGVSSQFFDAPNGPSVKQVLIEDEW [B2I.K.m] |  |  | Localisation [3]: Mitochondria
MKYYGNGVHCTKSGCSVNWGEAFSAGVHRLANGGNGFWSVRRAQLQVVASSRKQMGRWRSIDAGVDASDDQ [LCA.K.c] | Chloroplast (partial) |  | 
MQVTMKSSAVSGQRVGRIPVRAIRRAGAAIGRGLRAINIASTAHDVYSFFRPRHRRRSVRRAQLQVVASSRKQMGRWRSIDAGVDASDDQ [c.SIM.R.c] |  | Chloroplast | 
MQVTMKSSAVSGQRVSFLTTFRDLAIRAARSAGQSVLSTLSCRLSNTCLTQTAESFRGVSSQFFDAPNGPSVKQVLIEDEW [c.B2I.R.m] |  | Dual | 
MQVTMKSSAVSGQRVMWLSKTAKKLENSAKKRISEGIAIAIKGGSRLTQTAESFRGVSSQFFDAPNGPSVKQVLIEDEW [c.CP3.K.m] |  |  | Localisation [3]: Chloroplast
MQVTMKSSAVSGQRVMGWIRDFGKRIERVGQHTRDATIQTIAVAQQAANVAATLKG [c.S1D.K] |  |  | Localisation [3]: Mitochondria
VNYGNGVSCSKTKCSVNWGIITHQAFRVTSGVASG [B15, bacillocin 1580, HA-RAMP antimicrobial peptide, reference compound] |  |  | chloroplast targeting upon addition of cTP-C (P^c): enabled chloroplast targeting; targeting when combining cTP-N with mTP-C (^cP^m) (Figure 2): chloroplast targeting
MQVTMKSSAVSGQRVRYYGNGVSCNRRGCSVDWGRAIGIIGNNAAANLTTGGRAGWRGSVRRAQLQVVASSRKQMGRWRSIDAGVDASDDQ [c.EHF.R.c] |  | Chloroplast | 
MQVTMKSSAVSGQRVMGLFSKFNKKKIKSGLIKIIKTAGKEAGLEALRTGIDVIGCKIKGECLTQTAESFRGVSSQFFDAPNGPSVKQVLIEDEW [c.E1S.K.m] |  |  | Localisation [3]: Chloroplast
KYYGNGVSCNKKGCSVDWGKAIGIIGNNAAANLTTGGKAGWKG [EHF, enterocin HF, HA-RAMP antimicrobial peptide, reference compound] |  |  | chloroplast targeting upon addition of cTP-C (P^c): enabled chloroplast targeting; targeting when combining cTP-N with mTP-C (^cP^m) (Figure 2): chloroplast targeting
MGLFSRFNRRRIRSGLIRIIRTAGREAGLEALRTGIDVIGCRIRGECSVRRAQLQVVASSRKQMGRWRSIDAGVDASDDQ [E1S.R.c] | Neither |  | 
MQVTMKSSAVSGQRVMVNYGNGVSCSRTRCSVNWGIITHQAFRVTSGVASGSVRRAQLQVVASSRKQMGRWRSIDAGVDASDDQ [c.B15.R.c] | Chloroplast |  | 
